In patent US8940798B2, “Compounds useful for treating and/or preventing disease-associated bone loss” (Centre National de al Recherche Scientifique (CNRS), priority 2011, dated 2015):

What was measured:
C57B1/6 mice = assay: Ovariectomy-induced bone loss model in C57B1/6 mice; type: in vivo, mouse; details: 5 days per week for 28 days
Text: After menopause, a decrease in bone density due to an increase in bone resorption, leading to osteoporosis, is observed. The decrease in estrogen secretion causes i) an increase in the osteoclast level due to the decrease in secretion of OPG, a RANKL inhibitor, by the osteoblasts and ii) an increase in the lifetime of the osteoclasts due to a decrease in the production of FasL, a promoter of apoptosis, by these cells. The ovariectomy model in the mouse is classically used as a model for this physiological disturbance (see FIG. 15).
Protocol experiment 1: 8 C57B1/6 mice underwent ovariectomy (OVX) and 4 mice were operated on without ablation of the ovaries (SHAM). After this operation, 4 OVX mice received the C21 compound (test group), 5 mg/d/kg, 5 days per week for 28 days, as a retro-orbital sinus injection, and the other 4 OVX mice (control group) and the SHAM group received PBS.
Protocol experiment 2: 16 C57B1/6 mice underwent ovariectomy (OVX) and 15 mice were operated on without ablation of the ovaries (SHAM). After this operation, 8 OVX mice received the C21 compound (test group), 15 mg/d/kg solubilized in 100 μl of 5% EtOH and 4% solutol, 5 days per week for 28 days, as an intraperitoneal injection, and the other 8 OVX mice (control group) and the SHAM group received 100 μl of 5% ethanol/4% solutol vehicle solution. […]

GEF TrioN = biological target: T1, GEF TrioN (Homo sapiens, UniProt O75962); assay: Active (GTP-bound) Rac1 pull-down in 293T cells expressing GFP-fused TrioN; type: cell-based; details: HEK293T cells, treated for 1 hour, 1% DMSO, western blot
T1 construct: expressed in transfected cells; host or cells: 293T cells
Text: FIGS. 5A-5H: Inhibition of bone resorption by an inhibitor of Rac1 activation by Dock5. (FIG. 5A) Principle of the yeast exchange assay used to identify inhibitors of Dock5 exchange activity. Wild type Rac1 is fused to LexA DNA binding domain (LexA) and its effector Kinectin (Kin) to GAL4 activation domain (GAD). Expression of Dock5-DHR2 activates Rac1, which binds to kinectin, leading to the expression of his3 and then yeast […] for histidine. Inhibitors of Dock5-DHR2 revert Rac1 activation. (FIG. 5B) Growth curves of yeasts expressing Rac1 and Kinectin with (open triangles) and without (dots) Dock5-DHR2, in medium complemented (plain lines) or not (dotted lines) with histidine. (FIG. 5C) Structure of N-(3,5-dichlorophenyl)benzensulfonamide (C21). […] (FIG. 5F) Number of OCs (OC) after a 24-hour incubation with the indicated concentrations of C21, expressed as a % of DMSO control (0 μM C21). […] To activate Rac1, OCs at day 4 of differentiation were starved overnight in the presence of 2% serum, stimulated with 100 ng/ml M-CSF or lifted and replated onto vitronectin-coated plates for 30 minutes prior to lysis, and active Rac1 levels were measured G-LISA kit according to manufacturer's instructions (Cytoskeleton).

O=S(=O)(Nc1cc(Cl)cc(Cl)c1)c1ccccc1 [C21, N-(3,5-dichlorophenyl)benzenesulfonamide]
Bone mass (BV/TV, right distal femur, micro-tomography) of mice having undergone ovariectomy (C57B1/6 mice; experiment 1, 5 mg/d/kg, retro-orbital sinus injection): not reduced
Bone mass of OVX animals compared with SHAM animals (C57B1/6 mice; experiment 2, 15 mg/d/kg, intraperitoneal injection): not significantly different
Rac1 activation by the GEF TrioN (GEF TrioN): no effect
